Results from ChEMBL document CHEMBL1134065, “Structure-Activity study of retinoid agonists bearing substituted dicarba-closo-dodecaborane. Relation between retinoidal activity and conformation of two aromatic nuclei” (2001).

How the values were obtained:
[1] = molecular target: T1, Retinoic acid receptor gamma (Homo sapiens) (UniProt P13631); assay: Agonistic activity on Retinoic acid receptor gamma by transcriptional activation in COS-1 cells incubated at 10e-9 M; type: functional, cell-based
T1 sequence (whole entry): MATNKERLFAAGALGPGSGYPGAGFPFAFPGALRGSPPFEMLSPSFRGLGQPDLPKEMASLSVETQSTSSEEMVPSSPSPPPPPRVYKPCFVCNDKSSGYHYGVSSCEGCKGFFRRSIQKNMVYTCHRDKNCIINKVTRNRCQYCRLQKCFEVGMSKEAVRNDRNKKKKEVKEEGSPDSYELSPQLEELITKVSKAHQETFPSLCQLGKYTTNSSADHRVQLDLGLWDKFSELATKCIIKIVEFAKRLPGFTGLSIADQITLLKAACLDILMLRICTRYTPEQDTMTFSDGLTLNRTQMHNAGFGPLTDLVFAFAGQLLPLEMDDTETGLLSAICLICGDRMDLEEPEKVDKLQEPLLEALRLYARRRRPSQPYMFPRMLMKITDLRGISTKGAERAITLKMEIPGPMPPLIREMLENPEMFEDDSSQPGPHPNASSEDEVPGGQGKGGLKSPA

HL-60 [2] = assay: HL-60 differentiation-inducing activity at a dose of 10e-7 M; type: functional, Homo sapiens
[3] = molecular target: T1, Retinoic acid receptor gamma (Homo sapiens); assay: Agonistic activity on Retinoic acid receptor gamma by transcriptional activation in COS-1 cells incubated at 10e-8 M; type: functional, cell-based
[4] = molecular target: T1, Retinoic acid receptor gamma (Homo sapiens); assay: Agonistic activity on Retinoic acid receptor gamma by transcriptional activation in COS-1 cells incubated at 10e-6 M; type: functional, cell-based
[5] = molecular target: T1, Retinoic acid receptor gamma (Homo sapiens); assay: Agonistic activity on Retinoic acid receptor gamma by transcriptional activation in COS-1 cells incubated at 10e-7 M; type: functional, cell-based
HL-60 [6] = assay: HL-60 differentiation-inducing activity at a dose of 10e-8 M; type: functional, Homo sapiens
HL-60 [7] = assay: HL-60 differentiation-inducing activity at a dose of 10e-9 M; type: functional, Homo sapiens
HL-60 [8] = assay: HL-60 differentiation-inducing activity at a dose of 10e-10 M; type: functional, Homo sapiens
HL-60 [9] = assay: HL-60 differentiation-inducing activity at a dose of 10e-9.5 M; type: functional, Homo sapiens

Row | Relative luciferase response [1] | Relative luciferase response [3] | Relative luciferase response [4] | Relative luciferase response [5] | SMILES | Differentiated cells (HL-60 [2]) [%] | Differentiated cells (HL-60 [6]) [%] | Differentiated cells (HL-60 [7]) [%] | Differentiated cells (HL-60 [8]) [%] | Differentiated cells (HL-60 [9]) [%]
1 | 6 | 12 | 30 | 14 | CC1=C(/C=C/C(C)=C/C=C/C(C)=C/C(=O)O)C(C)(C)CCC1 [TRETINOIN] | ~85 | ~70 | ~2 |  | 
2 |  |  |  |  | CC1(C)CCC(C)(C)c2cc(NC(=O)c3ccc(C(=O)O)cc3)ccc21 [TAMIBAROTENE] |  | ~85 | ~75 | ~5 | ~40
